# Source: the supplement of paper PMC11061612
# Columns and labels:
# [1] = system: NCI-H1793 (Lung Adenocarcinoma); test: Bliss excess, mean over the matrix (fraction); higher = more synergy
# Summary of the method: (§1)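 Cell lines grown in DMEM/F12 or RPMI with 10% FBS were plated in 1536-well plates and held 24 hours at 37°C, 5% CO2 before 72 hours of exposure to two-drug dose matrices, with DMSO typically at 0.2%. CellTiter-Glo 2.0 luminescence gave viability, which was converted to inhibition. Vehicle wells were set to 0 and blank wells to 1. Combination Emax is the second-highest inhibition in the matrix, and Bliss excess is the observed combination effect minus the expected EA + EB − EA·EB, where EA and EB are the single-agent effects.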
# SN12C (Kidney Carcinoma) = test: as above
# Summary of the method: as §1
# [2] = system: DMS-273 (Small Cell Lung Carcinoma); test: as above
# Summary of the method: as §1
# [3] = system: NCI-H1781 (Lung Adenocarcinoma); test: as above
# Summary of the method: as §1
# [4] = system: OCI-AML2 (Acute Myeloid Leukemia); test: as above
# Summary of the method: as §1
# [5] = system: COR-L95 (Small Cell Lung Carcinoma); test: as above
# Summary of the method: as §1
# NCI-H2369 (Mesothelioma) = test: as above
# Summary of the method: as §1
# [6] = system: CTV-1 (T-Lymphoblastic Leukemia); test: as above
# Summary of the method: as §1
# [7] = system: NCI-H1299 (Non-Small Cell Lung Carcinoma); test: as above
# Summary of the method: as §1
# IGR-1 (Melanoma) = test: combination Emax (second highest fraction inhibited in the dose matrix, 72 h); higher = more inhibition; extreme values may be limits of the assay
# Summary of the method: as §1
# [8] = system: HPAC (Pancreatic Carcinoma); test: as above
# Summary of the method: as §1
# [9] = system: DMS-273 (Small Cell Lung Carcinoma); test: as above
# Summary of the method: as §1
# [10] = system: NCI-H1781 (Lung Adenocarcinoma); test: as above
# Summary of the method: as §1
# [11] = system: TGBC24TKB (Biliary Tract Carcinoma); test: as above
# Summary of the method: as §1
# [12] = system: IHH-4 (Thyroid Gland Carcinoma); test: as above
# Summary of the method: as §1
# [13] = system: OCI-AML2 (Acute Myeloid Leukemia); test: as above
# Summary of the method: as §1
# [14] = system: COR-L95 (Small Cell Lung Carcinoma); test: as above
# Summary of the method: as §1
# [15] = system: G-292-Clone-A141B1 (Osteosarcoma); test: as above
# Summary of the method: as §1
# NCI-H2595 (Mesothelioma) = test: as above
# Summary of the method: as §1
# [16] = system: NALM-6 (B-Lymphoblastic Leukemia); test: as above
# Summary of the method: as §1
# 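Wherever Bliss excess, mean over the matrix is given: after 72 h of two-drug dosing.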
smiles,measurement,setting,value
"CC1(C)CCC(CN2CCN(c3ccc(C(=O)NS(=O)(=O)c4ccc(NCC5CCOCC5)c([N+](=O)[O-])c4)c(Oc4cnc5[nH]ccc5c4)c3)CC2)=C(c2ccc(Cl)cc2)C1 [Venetoclax] + C=CCn1c(=O)c2cnc(Nc3ccc(N4CCN(C)CC4)cc3)nc2n1-c1cccc(C(C)(C)O)n1 [AZD1775] (first compound max 1 µM, partner max 1 µM)",Bliss excess,[1],-0.0007
same,Bliss excess,SN12C (Kidney Carcinoma),0
same,Bliss excess,[2],-0.0711
same,Bliss excess,[3],-0.0767
same,Bliss excess,[4],0.0028
same,Bliss excess,[5],0.001
same,Bliss excess,NCI-H2369 (Mesothelioma),-0.0134
same,Bliss excess,[6],-0.0327
same,Bliss excess,[7],0.0038
same,combination Emax,IGR-1 (Melanoma),0.396
same,combination Emax,[8],0.757
same,combination Emax,[9],0.749
same,combination Emax,[10],0.449
same,combination Emax,[11],0.52
same,combination Emax,[12],0.711
same,combination Emax,[13],1
same,combination Emax,[14],0.862
same,combination Emax,[15],0.263
same,combination Emax,NCI-H2595 (Mesothelioma),0.189
same,combination Emax,[16],1
"CC1(C)CCC(CN2CCN(c3ccc(C(=O)NS(=O)(=O)c4ccc(NCC5CCOCC5)c([N+](=O)[O-])c4)c(Oc4cnc5[nH]ccc5c4)c3)CC2)=C(c2ccc(Cl)cc2)C1 [Venetoclax] + CCN(CCO)CCCOc1ccc2c(Nc3cc(CC(=O)Nc4cccc(F)c4)[nH]n3)ncnc2c1 [AZD2811] (first compound max 1 µM, 7x7, partner max 1 µM)",Bliss excess,[1],-0.0039
same,Bliss excess,SN12C (Kidney Carcinoma),-0.0267
same,Bliss excess,[2],0.0016
same,Bliss excess,[3],0.0061
same,Bliss excess,[4],0.0892
same,Bliss excess,[5],0.0474
same,Bliss excess,NCI-H2369 (Mesothelioma),-0.015
same,Bliss excess,[6],-0.0281
same,Bliss excess,[7],-0.0358
same,combination Emax,IGR-1 (Melanoma),0.349
same,combination Emax,[8],0.361
same,combination Emax,[9],0.806
same,combination Emax,[10],0.577
same,combination Emax,[11],0.525
same,combination Emax,[12],0.389
same,combination Emax,[13],1
same,combination Emax,[14],0.743
same,combination Emax,[15],0.235
same,combination Emax,NCI-H2595 (Mesothelioma),0.611
same,combination Emax,[16],0.97
"CC1(C)CCC(CN2CCN(c3ccc(C(=O)NS(=O)(=O)c4ccc(NCC5CCOCC5)c([N+](=O)[O-])c4)c(Oc4cnc5[nH]ccc5c4)c3)CC2)=C(c2ccc(Cl)cc2)C1 [Venetoclax] + CN(C)CCCOc1ccc(-c2ccc3ncc4c(c3c2)n(C2CCOCC2)c(=O)n4C)cn1 [AZD0156] (first compound max 1 µM, 7x7, partner max 1 µM)",Bliss excess,[1],-0.0158
same,Bliss excess,SN12C (Kidney Carcinoma),-0.0307
same,Bliss excess,[2],0.0156
same,Bliss excess,[3],0.0048
same,Bliss excess,[4],-0.0267
same,Bliss excess,[5],0.0051
same,Bliss excess,NCI-H2369 (Mesothelioma),-0.0298
same,Bliss excess,[6],-0.0103
same,Bliss excess,[7],-0.004
same,combination Emax,IGR-1 (Melanoma),0.211
same,combination Emax,[8],0.26
same,combination Emax,[9],0.355
same,combination Emax,[10],0.277
same,combination Emax,[11],0.268
same,combination Emax,[12],0.129
same,combination Emax,[13],0.993
same,combination Emax,[14],0.535
same,combination Emax,[15],0.273
same,combination Emax,NCI-H2595 (Mesothelioma),0.177
same,combination Emax,[16],0.89
"CC1(C)CCC(CN2CCN(c3ccc(C(=O)NS(=O)(=O)c4ccc(NCC5CCOCC5)c([N+](=O)[O-])c4)c(Oc4cnc5[nH]ccc5c4)c3)CC2)=C(c2ccc(Cl)cc2)C1 [Venetoclax] + COc1cc(Nc2ncc3c(n2)-c2ccc(Cl)cc2C(c2c(F)cccc2OC)=NC3)ccc1C(=O)O [Alisertib] (first compound max 1 µM, 7x7, partner max 10 µM)",Bliss excess,[1],-0.0577
same,Bliss excess,SN12C (Kidney Carcinoma),-0.0985
same,Bliss excess,[2],0.0086
same,Bliss excess,[3],-0.0303
same,Bliss excess,[4],0.0826
same,Bliss excess,[5],0.134
same,Bliss excess,NCI-H2369 (Mesothelioma),-0.0739
same,Bliss excess,[6],-0.0095
same,Bliss excess,[7],0.0391
same,combination Emax,IGR-1 (Melanoma),0.403
same,combination Emax,[8],0.688
same,combination Emax,[9],0.767
same,combination Emax,[10],0.665
same,combination Emax,[11],0.638
same,combination Emax,[12],0.411
same,combination Emax,[13],1
same,combination Emax,[14],0.705
same,combination Emax,[15],0.484
same,combination Emax,NCI-H2595 (Mesothelioma),0.211
same,combination Emax,[16],0.977
"CC1(C)CCC(CN2CCN(c3ccc(C(=O)NS(=O)(=O)c4ccc(NCC5CCOCC5)c([N+](=O)[O-])c4)c(Oc4cnc5[nH]ccc5c4)c3)CC2)=C(c2ccc(Cl)cc2)C1 [Venetoclax] + C[C@@H]1COCCN1C2=NC(=NC(=C2)C3(CC3)[S@](=N)(=O)C)C4=C5C=CNC5=NC=C4 [AZD6738] (first compound max 1 µM, 7x7, partner max 10 µM)",Bliss excess,[1],0.0073
same,Bliss excess,SN12C (Kidney Carcinoma),-0.047
same,Bliss excess,[2],-0.0779
same,Bliss excess,[3],0.0284
same,Bliss excess,[4],0.0166
same,Bliss excess,[5],-0.0056
same,Bliss excess,NCI-H2369 (Mesothelioma),-0.0247
same,Bliss excess,[6],-0.0067
same,Bliss excess,[7],-0.0203
same,combination Emax,IGR-1 (Melanoma),0.675
same,combination Emax,[8],0.611
same,combination Emax,[9],0.809
same,combination Emax,[10],0.451
same,combination Emax,[11],0.705
same,combination Emax,[12],0.691
same,combination Emax,[13],1
same,combination Emax,[14],0.838
same,combination Emax,[15],0.344
same,combination Emax,NCI-H2595 (Mesothelioma),0.249
same,combination Emax,[16],0.994
"CC1(C)CCC(CN2CCN(c3ccc(C(=O)NS(=O)(=O)c4ccc(NCC5CCOCC5)c([N+](=O)[O-])c4)c(Oc4cnc5[nH]ccc5c4)c3)CC2)=C(c2ccc(Cl)cc2)C1 [Venetoclax] + C[C@@H](Nc1cc(F)cc(F)c1)c1cc(C(=O)N(C)C)cc2c(=O)cc(N3CCOCC3)oc12 [AZD8186] (first compound max 1 µM, 7x7, partner max 3 µM)",Bliss excess,[1],0.0197
same,Bliss excess,SN12C (Kidney Carcinoma),-0.0777
same,Bliss excess,[2],0.0274
same,Bliss excess,[3],-0.0341
same,Bliss excess,[4],-0.0033
same,Bliss excess,[5],0.095
same,Bliss excess,NCI-H2369 (Mesothelioma),-0.0299
same,Bliss excess,[6],0.0057
same,Bliss excess,[7],-0.0492
same,combination Emax,IGR-1 (Melanoma),0.0327
same,combination Emax,[8],0.211
same,combination Emax,[9],0.482
same,combination Emax,[10],0.28
same,combination Emax,[11],0.169
same,combination Emax,[12],0.22
same,combination Emax,[13],1
same,combination Emax,[14],0.782
same,combination Emax,[15],0.296
same,combination Emax,NCI-H2595 (Mesothelioma),0.163
same,combination Emax,[16],0.866
"CC1(C)CCC(CN2CCN(c3ccc(C(=O)NS(=O)(=O)c4ccc(NCC5CCOCC5)c([N+](=O)[O-])c4)c(Oc4cnc5[nH]ccc5c4)c3)CC2)=C(c2ccc(Cl)cc2)C1 [Venetoclax] + Cc1cc2ncnn2cc1Nc1ncc2c(n1)n(C1CCOCC1)c(=O)n2C [AZD7648] (first compound max 1 µM, 7x7, partner max 10 µM)",Bliss excess,[1],-0.042
same,Bliss excess,SN12C (Kidney Carcinoma),-0.0471
same,Bliss excess,[2],-0.0147
same,Bliss excess,[3],-0.0274
same,Bliss excess,[4],0.0273
same,Bliss excess,[5],-0.039
same,Bliss excess,NCI-H2369 (Mesothelioma),-0.0273
same,Bliss excess,[6],-0.0249
same,Bliss excess,[7],-0.0352
same,combination Emax,IGR-1 (Melanoma),0.174
same,combination Emax,[8],0.288
same,combination Emax,[9],0.482
same,combination Emax,[10],0.329
same,combination Emax,[11],0.332
same,combination Emax,[12],0.259
same,combination Emax,[13],1
same,combination Emax,[14],0.607
same,combination Emax,[15],0.221
same,combination Emax,NCI-H2595 (Mesothelioma),0.228
same,combination Emax,[16],0.789
